Source: patent US7354754B2, “Microorganism sensitive to lysozyme” (National Institute of Advanced Industrial Science and …, priority 2002, dated 2008)

Assays:
Type in all cases: cell-based
[1] = test system: Rhodococcus erythropolis strain L-88; experiment: Minimum growth inhibition concentration on LB agar medium, strain L-88; settings: 30° C., 2 days
Text: (§1) A microorganism of the genus Rhodococcus according to the present invention is a mutant microorganism of the genus Rhodococcus, which has a higher sensitivity to lysozyme than a wild-type microorganism of the genus Rhodococcus. The microorganism of the genus Rhodococcus is not limited to a specific species and includes Rhodococcus erythropolis, Rhodococcus fascians, and Rhodococcus opacus. The wild-type microorganism of the genus Rhodococcus refers to a microorganism belonging to the genus Rhodococcus and having no genetic mutation, for example, Rhodococcus erythropolis strain JCM 3201. More specifically, the microorganism of the genus Rhodococcus according to the present invention having a higher sensitivity to lysozyme is a mutant derived from a wild-type microorganism of the genus Rhodococcus as a parent strain, and having an increased sensitivity to lysozyme compared to the parent strain. The phrase “having an increased sensitivity to lysozyme” means that cell lysis may occur at a low lysozyme concentration. […] Alternatively, the degree of sensitivity to lysozyme can be determined by adding lysozyme to a predetermined concentration of a microorganism of the genus Rhodococcus, and monitoring a change in absorbence while culturing. […]

[2] = test system: Rhodococcus erythropolis strain JCM 3201; experiment: Minimum growth inhibition concentration on LB agar medium, strain JCM 3201; settings: strain JCM 3201 (wild type), 30° C., 2 days
Text: as §1

[3] = test system: Rhodococcus erythropolis strain L-65; experiment: Turbidity change of culture solution by addition of lysozyme, strain L-65; settings: lysozyme 12.5 μg/ml added at OD600 about 0.2, LB medium, 30° C.
Protocol: (§2) To 100 ml of LB medium, Rhodococcus erythropolis strain L-65 was inoculated and cultured with shaking at 30° C. The absorbence (OD600) of the culture solution was measured at an absorption wavelength of 600 nm every hour from the beginning of the logarithmic growth period. When OD600 reached about 0.2, the volume of the culture solution was divided into halves. To one of them, lysozyme was added to a final concentration of 12.5 μg/ml. No lysozyme was added to the other. While both solutions were further cultured continuously, the absorbence was measured. The growth profiles of Rhodococcus erythropolis strain L-65 culture solutions with Lysozyme (12.5 μg/ml) and without lysozyme were shown by absorbence at 600 nm. When OD600 reached about 0.2, lysozyme was added (Indicated by the arrow in the figure). […] This is considered because bacterial cell lysis was caused by lysozyme.

[4] = test system: Rhodococcus erythropolis strain L-88; experiment: Turbidity change of culture solution by addition of lysozyme, strain L-88; settings: lysozyme 12.5 μg/ml added at OD600 about 0.2, LB medium, 30° C.
Protocol: as §2
The same operation as in Example 2 was performed by use of Rhodococcus erythropolis strain L-88. The growth profiles of culture solutions of Rhodococcus erythropolis strain L-88 with lysozyme (12.5 μg/ml) and without lysozyme were shown by absorbence at 600 nm. When OD600 reached about 0.2, lysozyme was added (Indicated by the arrow in the figure). […] This is considered because bacterial cell lysis was caused by lysozyme.

[5] = test system: Rhodococcus erythropolis strain JCM 3201; experiment: Turbidity change of culture solution by addition of lysozyme, strain JCM 3201; settings: lysozyme 12.5 μg/ml added at OD600 about 0.2, LB medium, 30° C.
Protocol: as §2
The same operation as in Example 2 was performed by use of Rhodococcus erythropolis strain JCM 3201. The growth profiles of culture solutions of Rhodococcus erythropolis strain JCM 3201 with lysozyme (12.5 μg/ml) and without lysozyme were shown by absorbence at 600 nm. When OD600 reached about 0.2, lysozyme was added (Indicated by the arrow in the figure).

[6] = test system: Rhodococcus erythropolis strain L-65; experiment: Cell lysis with lysozyme for extraction of recombinant PIP protein, strain L-65; settings: lysozyme 1 mg/ml, 37° C., one hour, nondenaturation buffer
Text: A plasmid (pHN170, Nakashima and Tamura: the full length sequence is represented by SEQ ID No: 2) was constructed such that it could self-replicate in a bacterial cell of Rhodococcus erythropolis and could be induced by thiostreptone to express a proline iminopeptidase (hereinafter referred to as “PIP”) protein (T. Tamura et al., FEBS Lett. 398, 101-105 (1996)) having a 6× histidine tag at the C terminal. This plasmid was introduced into Rhodococcus erythropolis strain L-65 by an electroporation method. Transformants were screened on LB agar medium containing tetracycline (20 μg/ml). The transformants were inoculated on 4 ml of LB medium containing tetracycline (8 μg/ml) and cultured with shaking at 30° C. until the absorbence at an absorption wavelength of 600 nm reached 0.8. The entire culture solution was added to 40 ml of LB medium containing thiostreptone (1 μg/ml) and cultured with rotation in a vaned flask for 16 hours. After PIP protein was induced to express, bacterial cells were centrifugally collected at 1,500×g for 15 minutes. […] As a result, a clear band was detected near the molecular weight (34.3 KDa), which was predicted from the amino acid sequence of the 6× histidine-fused PIP protein (FIG. 5). […]

[7] = test system: Rhodococcus erythropolis strain L-88; experiment: Cell lysis with lysozyme for extraction of recombinant PIP protein, strain L-88; settings: lysozyme 1 mg/ml, 37° C., one hour, nondenaturation buffer
[8] = test system: Rhodococcus erythropolis strain JCM 3201; experiment: Cell lysis with lysozyme for extraction of recombinant PIP protein, strain JCM 3201; settings: lysozyme 1 mg/ml, 37° C., one hour
[9] = test system: Rhodococcus erythropolis strain L-65; experiment: Minimum growth inhibition concentration on LB agar medium, strain L-65; settings: 30° C., 2 days
Text: as §1

[10] = test system: Rhodococcus erythropolis wild type and mutant strain; experiment: Comparison of wild type and mutant strain for sensitivity to antibiotics; settings: determined similarly to the ampicillin test
Protocol: The sensitivity of Rhodococcus erythropolis strain L-65 and L-88 to ampicillin was determined in the same manner as in Example 1. To explain more specifically, the bacterial cells of each strain were inoculated in LB medium and cultured with shaking at 30° C. A part of the culture solution was taken in the middle of logarithmic growth period and diluted with fresh LB medium so as to contain 1×10^5, 1×10^4, 1×10^3, 1×10^2, and […] cells in 10 μl of the LB medium. The diluted culture solutions thus prepared were dropped onto each of LB agar mediums containing lysozyme in concentrations of 15, 10, 1, and 0.1 μg/ml. After the mediums were cultured at 30° C. for 2 days and the presence or absence of bacterial cells grown on the mediums was checked. In this manner, the minimum growth inhibition concentration was determined (Table 2).

lysozyme: lysozyme derived from egg-white (manufactured by Sigma), cell-wall lytic enzyme
Minimum growth-inhibiting lysozyme concentration [1]: 12.5 µg/mL
Minimum growth-inhibiting lysozyme concentration [2]: >400 µg/mL
Change of absorbence (OD600) of culture solution after addition of lysozyme [3]: a sharp decrease in absorbence was observed
Change of absorbence (OD600) of culture solution after addition of lysozyme [4]: a sharp decrease in absorbence was observed
Change of absorbence (OD600) of culture solution after addition of lysozyme [5]: the same tendency of growth was observed
Cell lysis by lysozyme treatment (PIP band in supernatant, SDS polyacrylamide gel electrophoresis) [6]: Cells were lysed completely
Cell lysis by lysozyme treatment (PIP band in supernatant, SDS polyacrylamide gel electrophoresis) [7]: The same phenomenon as in the case of bacterial stain L-65 is considered
Cell lysis by lysozyme treatment (PIP band in supernatant, SDS polyacrylamide gel electrophoresis) ([8]; strain JCM 3201, nondenaturation buffer, no ampicillin): cell lysis rarely takes place
Cell lysis by lysozyme treatment (PIP band in supernatant, SDS polyacrylamide gel electrophoresis) ([8]; strain JCM 3201 treated with ampicillin 600 μg/ml for 2 hours before cell collection): cell lysis takes place even in nondenaturation conditions

CC1(C)S[C@@H]2[C@H](NC(=O)[C@H](N)c3ccccc3)C(=O)N2[C@H]1C(=O)O [ampicillin, reference compound]
Minimum growth-inhibiting ampicillin concentration [9]: 1 µg/mL
Minimum growth-inhibiting ampicillin concentration [1]: 1 µg/mL
Minimum growth-inhibiting ampicillin concentration [2]: 15 µg/mL

O=C(N[C@H](CO)[C@H](O)c1ccc([N+](=O)[O-])cc1)C(Cl)Cl [chloramphenicol]
Difference in sensitivity between wild type and mutant strain [10]: no significant difference was observed

thiostreptone
Difference in sensitivity between wild type and mutant strain [10]: no significant difference was observed
